# Data published in PubChem BioAssay (NCI).
#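 Following 48 hours of exposure in 96-well plates, responses at five concentrations were used to interpolate endpoints linearly. GI50: concentration for 50% inhibition of growth. TGI: total growth inhibition.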
# How the values were obtained:
# Assay in all cases: NCI-60 cell line screen, 48 h
# M14 melanoma = test system: M14 melanoma
# SK-OV-3 ovarian = test system: SK-OV-3 ovarian
# SN12C renal = test system: SN12C renal
# IGROV1 ovarian = test system: IGROV1 ovarian
# UO-31 renal = test system: UO-31 renal
# OVCAR-8 ovarian = test system: OVCAR-8 ovarian
# K-562 leukemia = test system: K-562 leukemia
# A549 NSCLC = test system: A549 NSCLC
# KM12 colon = test system: KM12 colon
# U251 CNS = test system: U251 CNS
# HCT-116 colon = test system: HCT-116 colon
# HCC-2998 colon = test system: HCC-2998 colon
# TK-10 renal = test system: TK-10 renal
# COLO 205 colon = test system: COLO 205 colon
# OVCAR-5 ovarian = test system: OVCAR-5 ovarian
# OVCAR-3 ovarian = test system: OVCAR-3 ovarian
# UACC-257 melanoma = test system: UACC-257 melanoma
# SK-MEL-5 melanoma = test system: SK-MEL-5 melanoma
# SF-295 CNS = test system: SF-295 CNS
# BT-549 breast = test system: BT-549 breast
# MDA-MB-231 breast = test system: MDA-MB-231 breast
# LOX IMVI melanoma = test system: LOX IMVI melanoma
# HL-60(TB) leukemia = test system: HL-60(TB) leukemia
# MOLT-4 leukemia = test system: MOLT-4 leukemia
# HOP-92 NSCLC = test system: HOP-92 NSCLC
# MDA-MB-468 breast = test system: MDA-MB-468 breast
# CCRF-CEM leukemia = test system: CCRF-CEM leukemia
# MDA-MB-435 = test system: MDA-MB-435
# ACHN renal = test system: ACHN renal
# NCI-H23 lung = test system: NCI-H23 lung
# NCI-H522 lung = test system: NCI-H522 lung
# EKVX NSCLC = test system: EKVX NSCLC
# SNB-75 CNS = test system: SNB-75 CNS
# A498 renal = test system: A498 renal
# SK-MEL-2 melanoma = test system: SK-MEL-2 melanoma
# UACC-62 melanoma = test system: UACC-62 melanoma
# SW-620 colon = test system: SW-620 colon
# NCI-H460 lung = test system: NCI-H460 lung
# SK-MEL-28 melanoma = test system: SK-MEL-28 melanoma
# DU-145 prostate = test system: DU-145 prostate
# CAKI-1 renal = test system: CAKI-1 renal
# PC-3 prostate = test system: PC-3 prostate
# SR leukemia = test system: SR leukemia
# HOP-62 NSCLC = test system: HOP-62 NSCLC
# OVCAR-4 ovarian = test system: OVCAR-4 ovarian
# HS 578T breast = test system: HS 578T breast
# 786-0 renal = test system: 786-0 renal
# RXF 393 renal = test system: RXF 393 renal
# SF-539 CNS = test system: SF-539 CNS
# SF-268 CNS = test system: SF-268 CNS
# MALME-3M melanoma = test system: MALME-3M melanoma
# HCT-15 colon = test system: HCT-15 colon
# SNB-19 CNS = test system: SNB-19 CNS
# MCF7 breast = test system: MCF7 breast
# RPMI-8226 leukemia = test system: RPMI-8226 leukemia
# NCI-H226 lung = test system: NCI-H226 lung
compound,measurement,setting,value
CSc1ccccc1NC(=O)c1ccc2nnn(/C(C#N)=C/c3ccccn3)c2c1,GI50,M14 melanoma,2 µM
same,TGI,M14 melanoma,3.98 µM
same,GI50,SK-OV-3 ovarian,18.6 µM
same,TGI,SK-OV-3 ovarian,33.8 µM
same,GI50,SN12C renal,3.87 µM
same,TGI,SN12C renal,14.1 µM
same,GI50,IGROV1 ovarian,2.07 µM
same,TGI,IGROV1 ovarian,4.46 µM
same,GI50,UO-31 renal,1.55 µM
same,TGI,UO-31 renal,2.89 µM
same,GI50,OVCAR-8 ovarian,3.34 µM
same,TGI,OVCAR-8 ovarian,12.7 µM
same,GI50,K-562 leukemia,1.84 µM
same,TGI,K-562 leukemia,6.86 µM
same,GI50,A549 NSCLC,10.2 µM
same,TGI,A549 NSCLC,23.6 µM
same,GI50,KM12 colon,3.08 µM
same,TGI,KM12 colon,10.7 µM
same,GI50,U251 CNS,3.61 µM
same,TGI,U251 CNS,12.9 µM
same,GI50,HCT-116 colon,1.8 µM
same,TGI,HCT-116 colon,3.46 µM
same,GI50,HCC-2998 colon,1.78 µM
same,TGI,HCC-2998 colon,3.33 µM
same,GI50,TK-10 renal,1.75 µM
same,TGI,TK-10 renal,3.25 µM
same,GI50,COLO 205 colon,2.02 µM
same,TGI,COLO 205 colon,3.63 µM
same,GI50,OVCAR-5 ovarian,1.84 µM
same,TGI,OVCAR-5 ovarian,3.91 µM
same,GI50,OVCAR-3 ovarian,1.77 µM
same,TGI,OVCAR-3 ovarian,3.48 µM
same,GI50,UACC-257 melanoma,2.02 µM
same,TGI,UACC-257 melanoma,5.3 µM
same,GI50,SK-MEL-5 melanoma,3.37 µM
same,TGI,SK-MEL-5 melanoma,12.1 µM
same,GI50,SF-295 CNS,15.5 µM
same,TGI,SF-295 CNS,28.8 µM
same,GI50,BT-549 breast,2.32 µM
same,TGI,BT-549 breast,7.2 µM
same,GI50,MDA-MB-231 breast,1.99 µM
same,TGI,MDA-MB-231 breast,4.06 µM
same,GI50,LOX IMVI melanoma,1.7 µM
same,TGI,LOX IMVI melanoma,3.19 µM
same,GI50,HL-60(TB) leukemia,1.9 µM
same,TGI,HL-60(TB) leukemia,5.97 µM
same,GI50,MOLT-4 leukemia,3.29 µM
same,TGI,MOLT-4 leukemia,9.07 µM
same,GI50,HOP-92 NSCLC,1.89 µM
same,TGI,HOP-92 NSCLC,7.5 µM
same,GI50,MDA-MB-468 breast,1.6 µM
same,TGI,MDA-MB-468 breast,3.32 µM
same,GI50,CCRF-CEM leukemia,3 µM
same,TGI,CCRF-CEM leukemia,> 100 µM
same,GI50,MDA-MB-435,2.07 µM
same,TGI,MDA-MB-435,4.89 µM
same,GI50,ACHN renal,1.78 µM
same,TGI,ACHN renal,3.17 µM
same,GI50,NCI-H23 lung,1.8 µM
same,TGI,NCI-H23 lung,3.52 µM
same,GI50,NCI-H522 lung,1.56 µM
same,TGI,NCI-H522 lung,3.22 µM
same,GI50,EKVX NSCLC,4.59 µM
same,TGI,EKVX NSCLC,16.1 µM
same,GI50,SNB-75 CNS,10.1 µM
same,TGI,SNB-75 CNS,21.7 µM
same,GI50,A498 renal,15.3 µM
same,TGI,A498 renal,28.6 µM
same,GI50,SK-MEL-2 melanoma,2.25 µM
same,TGI,SK-MEL-2 melanoma,5.22 µM
same,GI50,UACC-62 melanoma,1.83 µM
same,TGI,UACC-62 melanoma,3.84 µM
same,GI50,SW-620 colon,1.86 µM
same,TGI,SW-620 colon,3.54 µM
same,GI50,NCI-H460 lung,3.24 µM
same,TGI,NCI-H460 lung,11.1 µM
same,GI50,SK-MEL-28 melanoma,1.86 µM
same,TGI,SK-MEL-28 melanoma,3.75 µM
same,GI50,DU-145 prostate,1.93 µM
same,TGI,DU-145 prostate,3.64 µM
same,GI50,CAKI-1 renal,1.55 µM
same,TGI,CAKI-1 renal,2.92 µM
same,GI50,PC-3 prostate,4.09 µM
same,TGI,PC-3 prostate,16.6 µM
same,GI50,SR leukemia,2.51 µM
same,TGI,SR leukemia,9.46 µM
same,GI50,HOP-62 NSCLC,15.7 µM
same,TGI,HOP-62 NSCLC,30.9 µM
same,GI50,OVCAR-4 ovarian,4.22 µM
same,TGI,OVCAR-4 ovarian,17.3 µM
same,GI50,HS 578T breast,3.29 µM
same,TGI,HS 578T breast,13.3 µM
same,GI50,786-0 renal,1.82 µM
same,TGI,786-0 renal,3.38 µM
same,GI50,RXF 393 renal,1.5 µM
same,TGI,RXF 393 renal,2.86 µM
same,GI50,SF-539 CNS,1.84 µM
same,TGI,SF-539 CNS,3.54 µM
same,GI50,SF-268 CNS,11.5 µM
same,TGI,SF-268 CNS,28.7 µM
same,GI50,MALME-3M melanoma,1.75 µM
same,TGI,MALME-3M melanoma,3.29 µM
same,GI50,HCT-15 colon,1.67 µM
same,TGI,HCT-15 colon,3.54 µM
same,GI50,SNB-19 CNS,13.4 µM
same,TGI,SNB-19 CNS,26.2 µM
same,GI50,MCF7 breast,1.69 µM
same,TGI,MCF7 breast,3.36 µM
same,GI50,RPMI-8226 leukemia,3.14 µM
same,TGI,RPMI-8226 leukemia,> 100 µM
same,GI50,NCI-H226 lung,13.9 µM
same,TGI,NCI-H226 lung,32.9 µM
C#C[C@]1(O)CC[C@H]2[C@@H]3CC=C4c5sc(-c6cccc(O)c6)nc5CC[C@]4(C)[C@H]3CC[C@@]21C,GI50,MDA-MB-468 breast,2.56 µM
same,TGI,MDA-MB-468 breast,6.66 µM
CC[n+]1ccc2c(c1)C(=O)c1nccc3c1c-2nc1ccccc13,GI50,MDA-MB-468 breast,0.462 µM
same,TGI,MDA-MB-468 breast,1.18 µM
COc1cc2c(c(OC)c1OC)-c1ccc(NCc3ccccc3)c(=O)cc1[C@@H](NC(C)=O)CC2,GI50,MDA-MB-468 breast,0.319 µM
same,TGI,MDA-MB-468 breast,9.13 µM
CC1=C2[C@@H](CC1)[C@]1(C)O[C@@](C(C)C)(C[C@H]1OC(=O)[C@H](C)O)[C@H]2OC(=O)/C=C/c1ccccc1,GI50,MDA-MB-468 breast,12.6 µM
same,TGI,MDA-MB-468 breast,28.3 µM
N#Cc1nc(-c2ccc(F)cc2)oc1S(=O)(=O)N1CCOCC1,GI50,MDA-MB-468 breast,1.6 µM
same,TGI,MDA-MB-468 breast,3.27 µM
CN1CCN(Cc2ccc(NC(=O)c3cncc(C#Cc4cnc(N)c5ccccc45)c3)cc2C(F)(F)F)CC1,GI50,MDA-MB-468 breast,0.4 µM
same,TGI,MDA-MB-468 breast,0.918 µM
